Data as given in article PMC4294348 (Oncotarget, 2014).

Test: Motesanib plasma pharmacokinetics (LC-MS/MS)
Format: in vivo, human
Settings: for Cmax / AUC / Tmax: human, plasma; for Cmax / AUC: po; for AUC: time 0 to 24 hours; for Tmax: listed as 'Mean'
Method: Motesanib PK was assessed by comparing week 1 versus week 4 or 5 (motesanib without and with trebananib, respectively). Serum samples for the evaluation of minimum and maximum observed trebananib concentrations in the plasma were collected immediately before dosing on day 1 of weeks 2, 3, 4, 5, 6, 8, and every 8 weeks thereafter until 4 weeks after the last dose of study treatment. In addition, intensive sampling was conducted at the end of infusion, and 6, 24, 48, and 96 hours following dosing on day 1 of weeks 4 or 5. The samples were analysed for trebananib concentrations employing a validated enzyme-linked immunosorbent assay.
For motesanib, postdose samples were taken at 0.5, 1, 4, 6, and 24 hours during weeks 1 and 5 (without and with trebananib coadministration, respectively). Motesanib plasma concentrations were assessed with a validated liquid chromatography/mass spectrometry (LC-MS/MS) method at Cedra Corporation (Austin, TX).

[1] = 75 mg, motesanib 75 mg oral QD without trebananib, mean
[2] = 125 mg, motesanib 125 mg oral QD without trebananib, mean
[3] = motesanib 75 mg oral QD with trebananib 3 mg kg^−1, mean
[4] = motesanib 125 mg oral QD with trebananib 3 mg kg^−1, mean

CC1(C)CNc2cc(NC(=O)c3cccnc3NCc3ccncc3)ccc21 [Motesanib]
Cmax [1]: 466 ng/mL | AUC [1]: 2580 ng·h/mL | Cmax [2]: 559 ng/mL | AUC [2]: 3130 ng·h/mL | Cmax [3]: 507 ng/mL | Cmax [4]: 541 ng/mL | AUC [3]: 3180 ng·h/mL | AUC [4]: 3920 ng·h/mL | Tmax (motesanib 75 mg oral QD with trebananib 3 mg kg^−1): 1 h | Tmax (motesanib 75 mg oral QD without trebananib): 1.1 h | Tmax (motesanib 125 mg oral QD without trebananib): 1 h | Effect of trebananib on motesanib PK (motesanib 75 mg or 125 mg with trebananib 3 mg kg^−1): did not appear to be affected | CL (motesanib 75 mg oral QD without trebananib, mean): 0.348 mL/min/kg
